Test results reported in ChEMBL document CHEMBL1949544, “Proteasome inhibitors from Neoboutonia melleri” (J Nat Prod, 2012).

Legend:
DLD-1 [1] = experiment: Inhibition of proteasome activity in human DLD1 cells expressing 4-ubiquitin luciferase reporter protein assessed increase of luciferase signal at 10 uM after 7 hrs relative to control
DLD-1 [2] = experiment: Inhibition of proteasome activity in human DLD1 cells expressing 4-ubiquitin luciferase reporter protein assessed increase of luciferase signal at 5 uM after 7 hrs relative to control
DLD-1 [3] = experiment: Inhibition of proteasome activity in human DLD1 cells expressing 4-ubiquitin luciferase reporter protein assessed increase of luciferase signal at 1 uM after 7 hrs relative to control
DLD-1 [4] = experiment: Inhibition of proteasome activity in human DLD1 cells expressing 4-ubiquitin luciferase reporter protein assessed increase of luciferase signal at 0.5 uM after 7 hrs relative to control

| fold change (FC) (DLD-1 [1]) | fold change (FC) (DLD-1 [2]) | fold change (FC) (DLD-1 [3]) | fold change (FC) (DLD-1 [4]) | SMILES |
| --- | --- | --- | --- | --- |
| 19 | 74 | 7.2 | – | C=C(C(=O)[C@H](OC(C)=O)[C@@H](C)[C@H]1[C@@H](OC(C)=O)C[C@@]2(C)[C@@H]3CC[C@H]4[C@H](C)C(=O)C=C[C@@]45C[C@@]35CC[C@]12C)C(C)C |
| 1.1 | 12 | 1.2 | – | C=C(C(=O)[C@H](OC(C)=O)[C@@H](C)[C@H]1[C@@H](OC(C)=O)C[C@@]2(C)[C@@H]3CC[C@H]4[C@H](C)C(=O)C=C[C@@]45C[C@@]35CC[C@]12CO)[C@@H](C)CO |
| 60 | 71 | 1.5 | 1 | C=C(C(=O)[C@H](OC(C)=O)[C@@H](C)[C@H]1[C@@H](OC(C)=O)C[C@@]2(C)[C@@H]3CC[C@H]4[C@H](C)C(=O)C=C[C@@]45C[C@@]35CC[C@]12C)[C@H](C)CO |
| 44 | 34 | 1.1 | – | CC(=O)O[C@H]1C[C@@]2(C)[C@@H]3CC[C@H]4[C@H](C)C(=O)C=C[C@@]45C[C@@]35CC[C@]2(C)[C@H]1[C@H](C)[C@@H](OC(C)=O)C(=O)C=C(C)C |
| 15 | 72 | 2.8 | – | C=C(C(=O)[C@H](OC(C)=O)[C@@H](C)[C@H]1[C@@H](OC(C)=O)C[C@@]2(C)[C@@H]3[C@H]4O[C@H]4[C@H]4[C@H](C)C(=O)C=C[C@@]45C[C@@]35CC[C@]12C)[C@@H](C)CO |
| 74 | 11 | 1.6 | 1.3 | C=C(C(=O)[C@H](O)[C@@H](C)[C@H]1[C@@H](OC(C)=O)C[C@@]2(C)[C@@H]3CC[C@H]4[C@H](C)C(=O)C[C@H](O)[C@@]45C[C@@]35CC[C@]12C)[C@@H](C)CO |
| 1.3 | 1.3 | 1.2 | – | C=C1C(C)CO[C@@]12C[C@@H](C)[C@H]1[C@H](C[C@@]3(C)[C@@H]4CC[C@H]5[C@](C)(C(=O)O)[C@@H](O)CC[C@@]56C[C@@]46CC[C@]13C)O2 (some centres not stated) |
| 2.6 | 1 | 0.9 | – | C=C(C(=O)C1(O)O[C@H]2C[C@@]3(C)[C@@H]4CC[C@H]5[C@H](C)C(=O)C=C[C@@]56C[C@@]46CC[C@]3(C)[C@H]2[C@@H]1C)[C@@H](C)CO (some centres not stated) |
| 1.1 | 1 | 1.1 | – | C=C(C(=O)C[C@@H](C)[C@H]1CC[C@@]2(C)[C@@H]3CC[C@H]4[C@](C)(C(=O)O[C@@H]5O[C@@H](C)[C@H](O)[C@@H](O)[C@H]5O)[C@@H](O)CC[C@@]45C[C@@]35CC[C@]12C)C(C)C |
| 15 | 1.9 | 1.2 | – | C=C(C(=O)[C@H](OC(C)=O)[C@@H](C)[C@H]1[C@@H](OC(C)=O)C[C@@]2(C)[C@@H]3CC[C@H]4[C@H](C)C(=O)[C@H](O)[C@H]5C[C@]54C3=CC[C@]12C)[C@@H](C)CO |
| 2.8 | 1.3 | 1 | – | C=C(C(=O)C[C@@H](C)[C@H]1[C@@H](OC(C)=O)C[C@@]2(C)[C@@H]3CC[C@H]4[C@](C)(C(=O)O)[C@@H](O)CC[C@@]45C[C@@]35CC[C@]12C)C(C)CO (some centres not stated) |
| 4.4 | 37 | 48 | 2.1 | C=C(C(=O)[C@H](OC(C)=O)[C@@H](C)[C@H]1[C@@H](OC(C)=O)C[C@@]2(C)[C@@H]3CC[C@H]4[C@H](C)C(=O)C=C[C@@]45C[C@@]35CC[C@]12C)[C@@H](C)CO |
| 20 | 65 | 2.4 | – | C=C(C(=O)[C@H](O)[C@@H](C)[C@H]1[C@@H](OC(C)=O)C[C@@]2(C)[C@@H]3CC[C@H]4[C@H](C)C(=O)C=C[C@@]45C[C@@]35CC[C@]12C)C(C)C |
| 31 | 70 | 1 | – | C=C(C(=O)[C@H](OC(C)=O)[C@@H](C)[C@H]1[C@@H](OC(C)=O)C[C@@]2(C)[C@@H]3CC[C@H]4[C@H](C)C(=O)C=C[C@@]45C[C@@]35CC[C@]12C)[C@@H](C)C=O |
| 48 | 45 | 0.9 | – | C=C(C(=O)[C@H](OC(C)=O)[C@@H](C)[C@H]1[C@@H](OC(C)=O)C[C@@]2(C)[C@@H]3CC[C@H]4[C@H](C)C(=O)CC[C@@]45C[C@@]35CC[C@]12C)[C@@H](C)CO |
| 1.1 | 1 | 1 | – | CC(C)=CC(=O)C[C@@H](C)[C@H]1CC[C@@]2(C)[C@@H]3CC[C@H]4[C@](C)(C(=O)O[C@@H]5O[C@@H](C)[C@H](O)[C@@H](O)[C@H]5O)[C@@H](O)CC[C@@]45C[C@@]35CC[C@]12C |
| – | 48 | 12 | 1.1 | C=C(C(=O)[C@H](OC(C)=O)[C@@H](C)[C@H]1[C@@H](OC(C)=O)C[C@@]2(C)[C@@H]3CC[C@H]4[C@H](C)C(=O)C=C[C@@]45C[C@@]35CC[C@]12C)[C@@H](C)COC(C)=O |
| 77 | 10 | 1.2 | – | C=C(C(=O)[C@H](O)[C@@H](C)[C@H]1[C@@H](OC(C)=O)C[C@@]2(C)[C@@H]3CC[C@H]4[C@H](C)C(=O)CC[C@@]45C[C@@]35CC[C@]12C)[C@@H](C)CO |
| – | 31 | 5.1 | 1.2 | C=C(C(=O)[C@H](OC(C)=O)[C@@H](C)[C@H]1[C@@H](OC(C)=O)C[C@@]2(C)[C@@H]3C[C@@H](O)[C@H]4[C@H](C)C(=O)C=C[C@@]45C[C@@]35CC[C@]12C)[C@@H](C)CO |
| 3 | 1.3 | 1.1 | – | CC(=O)O[C@H]1C[C@@]2(C)[C@@H]3CC[C@H]4[C@H](C)C(=O)C=C[C@@]45C[C@@]35CC[C@]2(C)[C@H]1[C@H](C)C=O |
| – | 35 | 1.1 | – | C=C(C(=O)[C@H](O)[C@@H](C)[C@H]1[C@@H](OC(C)=O)C[C@@]2(C)[C@@H]3C[C@@H](O)[C@H]4[C@H](C)C(=O)C=C[C@@]45C[C@@]35CC[C@]12C)[C@@H](C)CO |
| 1.8 | 1.3 | 1.2 | – | C=C(C(=O)[C@H](O)[C@@H](C)[C@H]1[C@@H](OC(C)=O)C[C@@]2(C)[C@@H]3CC[C@H]4[C@](C)(C(=O)O)[C@@H](O)CC[C@@]45C[C@@]35CC[C@]12C)C(C)C |
| 24 | 84 | 2 | 1.4 | C=C(C(=O)[C@H](OC(C)=O)[C@@H](C)[C@H]1[C@@H](OC(C)=O)C[C@@]2(C)[C@@H]3CC[C@H]4[C@H](C)C(=O)C=C[C@]45C[C@]35CC[C@]12C)[C@@H](C)CO |
| 53 | 5.2 | 1.1 | – | CC(=O)O[C@H]1C[C@@]2(C)[C@@H]3CC[C@H]4[C@H](C)C(=O)C=C[C@@]45C[C@@]35CC[C@]2(C)[C@H]1[C@H](C)[C@@H](O)C(=O)C=C(C)C |

| SMILES | fold change (FC) (DLD-1 [1]) | fold change (FC) (DLD-1 [2]) | fold change (FC) (DLD-1 [3]) | fold change (FC) (DLD-1 [4]) |
| --- | --- | --- | --- | --- |
| C=C(C(=O)[C@H](O)[C@@H](C)[C@H]1[C@@H](OC(C)=O)C[C@@]2(C)[C@@H]3CC[C@H]4[C@H](C)C(=O)C=C[C@@]45C[C@@]35CC[C@]12C)[C@@H](C)CO | 2.9 | 28 | 45 | 1.4 |
| C=C(C(=O)[C@H](O)[C@@H](C)[C@H]1[C@@H](OC(C)=O)C[C@@]2(C)[C@@H]3CC[C@H]4[C@H](C)C(=O)C=C[C@]45C[C@]35CC[C@]12C)[C@@H](C)CO | – | 9.1 | 0.9 | 0.9 |
